Values quoted from earlier work as cited in patent US20090221688A1, “PHARMACEUTICAL COMPOSITIONS CONTAINING DOCETAXEL AND A DEGRADATION INHIBITOR AND A PROCESS FOR OBTAINING THE SAME” (Quiral Quimica DO Brasil S.A., priority 2006, published 2009).

Molecular target: T1, recombinant human cytochrome P450 1B1 (hCYP1B1) (Homo sapiens, UniProt Q16678)
T1 sequence (Q16678 1-543): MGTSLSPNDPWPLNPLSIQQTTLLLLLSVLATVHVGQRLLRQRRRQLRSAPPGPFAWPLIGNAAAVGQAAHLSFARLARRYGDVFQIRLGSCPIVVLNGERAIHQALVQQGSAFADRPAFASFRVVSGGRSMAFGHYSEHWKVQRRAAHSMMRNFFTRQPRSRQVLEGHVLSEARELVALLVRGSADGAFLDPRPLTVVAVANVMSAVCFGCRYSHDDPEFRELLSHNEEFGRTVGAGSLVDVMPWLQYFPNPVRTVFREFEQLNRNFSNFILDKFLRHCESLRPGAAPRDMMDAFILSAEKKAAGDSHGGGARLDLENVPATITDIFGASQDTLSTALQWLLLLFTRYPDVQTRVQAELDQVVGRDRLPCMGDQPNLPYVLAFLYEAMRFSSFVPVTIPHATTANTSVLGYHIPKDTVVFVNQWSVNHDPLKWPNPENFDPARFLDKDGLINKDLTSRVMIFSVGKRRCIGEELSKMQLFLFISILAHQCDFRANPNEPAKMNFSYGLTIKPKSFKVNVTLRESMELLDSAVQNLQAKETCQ

| SMILES | Increase of the activity of hCYP1B1 (concentration of 10 μM) | Metabolism by hCYP1B1 in vitro (EROD activity as a measure) |
| --- | --- | --- |
| CC(=O)O[C@@]12COC1C[C@@H](O)[C@@]1(C)C(=O)[C@H](O)C3=C(C)[C@@H](OC(=O)[C@H](O)[C@@H](NC(=O)OC(C)(C)C)c4ccccc4)C[C@@](O)([C@@H](OC(=O)c4ccccc4)[C@@H]12)C3(C)C (stereo partly drawn) [7-epi-docetaxel (II), 4-acetoxy-2-α-benzoyloxy-5β-20-epoxy-1,7-α-10-β-trihydroxy-9-oxo-tax-11-en-13α-il (2R,3S) 3-tert-butoxycarbonylamino-2-hydroxy-3-phenylpropionate ester] | more than 7 fold | – |
| CC(=O)O[C@@]12COC1C[C@H](O)[C@@]1(C)C(=O)[C@H](O)C3=C(C)[C@@H](OC(=O)[C@H](O)[C@@H](NC(=O)OC(C)(C)C)c4ccccc4)C[C@@](O)([C@@H](OC(=O)c4ccccc4)[C@@H]12)C3(C)C (stereo partly drawn) [docetaxel, 4-acetoxy-2α-benzoyloxy-5β-20-epoxy-1,7-β-10-β-trihydroxy-9-oxo-tax-11-en-13α-il (2R,3S) 3-tert-butoxycarbonylamino-2-hydroxy-3-phenylpropionate ester] | – | not metabolized |
